For this test, the system named is Plasmodium falciparum. The experiment in a line: GSK_TCMDC: Inhibition of Plasmodium falciparum 3D7 in whole erythrocytes, using parasite LDH activity as an index of growth. The following applies: Plasmodium falciparum, 3D7. Type of test: functional, organism-based.
For `COC(=O)CCCCOc1c(OC)cc(Cc2cnc(N)nc2N)cc1OC`, the XC50 worked out at 39.3 nM.

The compound `Cc1nc(O)c2c(ccc3ccc(CNc4ccc(C(=O)N[C@@H](CCC(=O)O)C(=O)O)cc4)cc32)n1` displayed an XC50 of 177 nM.

Turning to `O=C(/C=C/c1ccc(Cl)c(Cl)c1)NCCCCCN1CCCN(C(=O)Nc2ccc(Cl)cc2)CC1`, the XC50 turned out to be 735 nM.

For `CCCc1cc(Cc2cnc(N)nc2N)cc(OC)c1OC`, the XC50 turned out to be 988 nM.

`CS(=O)(=O)CCNCc1cc(-c2cc3ncnc(Nc4ccc(OCc5cccc(F)c5)c(Cl)c4)c3s2)cs1`: the XC50 was 326 nM.

In turn, `O=[N+]([O-])c1ccc(C=NNc2nc(Nc3ccccc3)nc(Nc3ccccc3)n2)o1` showed an XC50 of 837 nM.

For the compound `O=S(=O)(c1cc2ccccc2s1)N(CCC(O)(C(F)(F)F)C(F)(F)F)Cc1cccc(O)c1`, the XC50 worked out at 751 nM.

For `CCCN(CCC)C(=O)c1cc(C(=O)N[C@@H](Cc2ccccc2)[C@H](O)CNCc2cccc(C(F)(F)F)c2)cc(N2CCCCS2(=O)=O)c1`, the XC50 came out at 876 nM.

Consider `CC(C)C(C(=O)Nc1ccc(S(=O)(=O)N(C)C)cc1)c1ccc(Cl)cc1` (stereo unspecified), for which the XC50 stood at 937 nM.

`O=C(Nc1cc(C(F)(F)F)cc(C(F)(F)F)c1)Nc1ccc(Cl)c(Cl)c1`: the XC50 was found to be 240 nM.

Compound `COc1ccc(OC)c(C(O)CNC(C)C)c1` (stereo unspecified) displayed an XC50 of 56 nM.

The compound `Cc1c(C2CCN(CCCCNC(=O)c3ccc(-c4ccc(C#N)cc4)cc3)CC2)c2ccccc2n1CCO` gave an XC50 of 995 nM.

In turn, `CCNC(=O)Nc1ccc(N(C)c2ccnc(Nc3ccc(CS(C)(=O)=O)cc3)n2)cc1` came in with an XC50 of 88.8 nM.

With `CCOc1ccc(-c2nonc2NC(=O)c2ccc(F)cc2)cc1OCC`, the XC50 was found to be 327 nM.

`CC(=O)c1c(Nc2c(C)cc(C)cc2C)oc(C)cc1=O` gave an XC50 of 481 nM.

`NC1CCN(Cc2ccc(-c3ccc(-c4nc5cc(F)ccc5[nH]4)s3)cc2)C1` (stereo unspecified) gave an XC50 of 646 nM.

Turning to `CC(C)(C)c1ccc(CNC(=O)c2ccc(-c3nc4ccc(Cl)cc4[nH]3)cc2)cc1`, the XC50 stood at 819 nM.

In turn, `O=C(N[C@@H](Cc1ccccc1)[C@H](O)CNC1CCCc2ccccc21)c1cc(C2CCCC2)cc(N2CCCC2=O)c1` (stereo partly specified) had an XC50 of 162 nM.

With `Cc1c(S(=O)(=O)Nc2cccc(CCN3CCCCC3CCN3CCCC3)c2)sc2ccc(Cl)cc12` (stereo unspecified), the XC50 turned out to be 925 nM.

`O=C(Nc1cccc(-c2cccc(-c3nc4ccccc4[nH]3)c2)c1)c1ccncc1` registered an XC50 of 479 nM.

In the case of `CCNc1cc(C(=O)N[C@@H](Cc2ccccc2)[C@H](O)CNCCc2cccc3ccccc23)cc(N2CCCC2=O)c1`, the XC50 came to 982 nM.

For `CN1CCC(NCc2ccc(S(=O)(=O)Nc3ccc(Oc4cccc(Cl)c4)cc3)cc2)CC1`, the XC50 amounted to 735 nM.

As for `Cc1ccccc1C1CCN(C2CCC(NC(=O)/C=C/c3c(F)ccc(F)c3F)CC2)CC1` (stereo unspecified), the XC50 came out at 1260 nM.

The compound `c1ccc(CN2CCC(NCc3ccccc3-c3ccc(CNCc4ccc5c(c4)OCO5)cc3)CC2)cc1` returned an XC50 of 326 nM.

Take `C[C@@H](COc1ccccc1)NCC(O)c1ccc([N+](=O)[O-])c(OCc2ccccc2)c1` (stereo partly specified): the XC50 came out at 994 nM.

`O=C(Cn1c2ccccc2c(=O)c2ccc(Cl)cc21)Nc1ccc(C(F)(F)F)cc1` returned an XC50 of 530 nM.

`CN(Cc1cccc(O)c1)C1CCN(c2cc(NC(=O)c3ccc(F)cc3)ccn2)CC1` registered an XC50 of 956 nM.

As to `CN(C)Cc1ccc2cc(NC(=O)c3ccc(-c4ccc(Cl)cc4)cc3)ccc2n1`, the XC50 was 849 nM.

In turn, `CN(C)Cc1ccc(-c2ccc3c(Nc4ccc(Oc5ccccc5)cc4)ccnc3c2)o1` had an XC50 of 788 nM.

With `Nc1nc2c(ncn2COC(COCc2ccccc2)COCc2ccccc2)c(=O)[nH]1.Nc1nc2ncn(COC(COCc3ccccc3)COCc3ccccc3)c2c(=O)[nH]1`, the XC50 came to 714 nM.

Regarding `COc1ccc(CNc2ccc3nc(N)nc(N)c3c2)cc1`, the XC50 was 172 nM.

`COc1ccc(C(=O)NC(Nc2ccc([N+](=O)[O-])cc2)C(Cl)(Cl)Cl)cc1` (stereo unspecified): the XC50 worked out at 1080 nM.

On to `Cc1nc2nc(N)nc(N)c2c(C)c1Cc1ccccc1I`, for which the XC50 stood at 351 nM.

On to `Cc1cccc2nc(-c3ccc(-c4ccc(NC(=O)Nc5cccc(C#N)c5)cc4)s3)[nH]c12`, for which the XC50 was 117 nM.

In the case of `COc1ccc2nccc([C@@H](O)CN3CCC(NC(=O)C(c4cccs4)N4CCN(c5ccc(F)cc5)CC4)CC3)c2c1` (stereo partly specified), the XC50 was 817 nM.

On to `O=C(Nc1cccc(CN2CCCN(Cc3ccc(O)cc3)CC2)c1)c1cccc(Cl)c1`, for which the XC50 was found to be 908 nM.

`COc1cccc(-c2ccc(O)c(CNCCc3cccc(F)c3)c2)n1` displayed an XC50 of 914 nM.

As for `COc1ccc2nccc(N(C)CC3(O)CCN(CC(O)c4ccc5c(c4)NC(=O)CS5)CC3)c2n1` (stereo unspecified), the XC50 was determined as 590 nM.

`COc1ccc(-c2ccc(NC(=O)c3cccc(C#N)c3)cc2)cc1CN1CCCN(C)CC1`: the XC50 came out at 293 nM.

`Cc1noc(-c2ccc3c(c2)CCN(CCC2CCC(NC(=O)/C=C/c4ccc(F)cc4)CC2)CC3)n1` (stereo unspecified) registered an XC50 of 1030 nM.

On to `Cc1cccc2nc(-c3cccc(-c4cccc(CNCC5CCCO5)c4)c3)[nH]c12` (stereo unspecified), for which the XC50 came to 602 nM.

In turn, `COc1ccc2c(NN=Cc3ccc(N(C)C)cc3)ccnc2c1` returned an XC50 of 663 nM.

Compound `CCCCCc1cc(OC(=O)CCCN(CC)CC)c2c(c1)OC(C)(C)C=C2C1=CCN(Cc2ccc3ccccc3c2)CC1` yielded an XC50 of 156 nM.

With `O=c1c(Br)c(C(F)(F)F)[nH]c2ccc(Oc3ccccc3)cc12`, the XC50 was found to be 1100 nM.

Take `Cc1ccc(-c2nc3cc(NC(=O)c4ccc([N+](=O)[O-])o4)ccc3o2)cc1Cl`: the XC50 came out at 160 nM.

The compound `Cc1noc(C)c1-c1ccc2c(Nc3ccccc3C(C)(C)C)c(C(=O)NCc3cccc4ccccc34)cnc2c1` yielded an XC50 of 941 nM.

Take `CCCCCNc1nc(Nc2ccccc2C)nc2ccccc12`: the XC50 was found to be 735 nM.

For the compound `CN(C)CCN(C)Cc1cccc(-c2ccc3c(Nc4ccc(F)cc4Cl)ccnc3c2)c1`, the XC50 came out at 110 nM.

For `O=C(NC1CCCCC1)c1ccc(O)c(-c2cccc(C(F)(F)F)c2)c1`, the XC50 came out at 712 nM.

For the compound `COc1ccc2nccc([C@@H](O)CN3CCC(NC(=O)/C=C/c4cc(F)cc(Br)c4)CC3)c2c1`, the XC50 is 172 nM.

The compound `CN1CCN(CCCN(Cc2csc(-c3ccc(CNCc4ccccc4)cc3)n2)C(=O)Nc2ccc3ccccc3c2)CC1` came in with an XC50 of 1100 nM.

The compound `CNC(=O)c1ccccc1Nc1nc(Nc2ccc(CCN3CCN(C)CC3)cc2)ncc1Cl` returned an XC50 of 651 nM.

For the compound `Cc1[nH]c(C)c(-c2ccc(CCc3ccc(F)cc3F)cc2)c(=O)c1Cl`, the XC50 amounted to 15.9 nM.

In turn, `CC(C)C[C@@H](C(=O)N[C@@H](CCCCNC(=O)OCc1ccccc1)C(=O)Nc1nccs1)[C@H](C)N(O)C=O` displayed an XC50 of 190 nM.

Compound `O=C(Nc1ccc(Cn2ncc(N3CCNCC3)c(Cl)c2=O)cc1)Nc1ccc(-c2ccccc2)cc1` came in with an XC50 of 591 nM.

As for `O=C(NC1CCC(N2CCC(O)(c3ccc(F)cc3)CC2)CC1)c1cc2ccccc2[nH]1` (stereo unspecified), the XC50 is 736 nM.

Compound `CC(=O)Nc1ccc(C(=O)Nc2cccc(-c3cccc(-c4nc5cc(F)ccc5[nH]4)c3)c2)cn1` returned an XC50 of 134 nM.

Turning to `COc1ccc(Cl)cc1N1CCN(CCCNC(=O)c2ccc(-c3nc4cc(Cl)c(C)cc4[nH]3)s2)CC1`, the XC50 was determined as 776 nM.

Consider `Cc1ccc(NC(=O)NCCCCCN2CCC(c3c[nH]c4ccccc34)CC2)cc1I`, for which the XC50 stood at 815 nM.

The compound `COc1ccc(C=C2SC(=N)N(c3ccccc3OC)C2=O)cc1` registered an XC50 of 300 nM.

`Cc1cc(C(=O)CN2C(=O)NC3(CCOc4ccccc43)C2=O)c(C)n1Cc1ccc(F)cc1` (stereo unspecified): the XC50 came out at 881 nM.

The compound `Brc1cc(Br)c2c(c1)C(NCCCNc1nc3ncccc3[nH]1)CCN2` (stereo unspecified) displayed an XC50 of 595 nM.

For `C/C=C/C=C/C1=NCCc2cc(OCCC)ccc21`, the XC50 came out at 914 nM.

As to `COc1ccc2ncc(F)c(CCN3CC(O)C(CNCc4ccc5c(n4)NC(=O)CS5)C3)c2c1` (stereo unspecified), the XC50 was 784 nM.

`Nc1nc(N)c2c(ccc3c2ccn3CCCC2CCCNC2)n1` (stereo unspecified) returned an XC50 of 898 nM.

The compound `O=C(NCc1ccccc1)C1Cc2c([nH]c3ccc(Br)cc23)C2(CCN(Cc3ccccc3)CC2)N1` (stereo unspecified) gave an XC50 of 873 nM.

In the case of `Oc1cccc(C2CCCN(Cc3cccc4cc[nH]c34)C2)c1` (stereo unspecified), the XC50 was 507 nM.

In the case of `Cc1cc(OCCCn2ccnc2)ccc1-c1csc(/N=C(\N)NCc2ccccc2)n1`, the XC50 turned out to be 878 nM.

Consider `O=C(Nc1cccc(-c2cccc(-c3nc4cc(F)ccc4[nH]3)c2)c1)c1ccncc1`, for which the XC50 was 514 nM.

The compound `CCCc1cc(Cc2cnc(N)nc2N)cc(CCC)c1O` had an XC50 of 277 nM.

On to `COc1ccc(NC(=O)c2cc(NC(=O)C3(N)CC3)c(=O)n(Cc3ccc(C(N)=O)cc3)c2)cc1`, for which the XC50 turned out to be 792 nM.

Consider `Cc1cc(=O)c(-c2ccc(Oc3ccc(C(F)(F)F)cc3)cc2)c(C)n1O`, for which the XC50 was found to be 604 nM.

As for `CN(C)CCCOc1ccc(CN2CC[C@H](NC(=O)c3ccc(Cl)c(Cl)c3)C2)cc1Br`, the XC50 was determined as 763 nM.

In the case of `Cc1ccc2[nH]c(C)cc(=NN=Cc3cccc(Cl)c3)c2c1`, the XC50 was found to be 739 nM.

Regarding `CN1CCN(c2ccnc3ccc(NC(=O)Cc4cccc(Cl)c4Cl)cc23)CC1`, the XC50 was 791 nM.

Compound `Cc1cc(Nc2ccc3c(c2)CCC3)n2ncnc2n1` showed an XC50 of 967 nM.

Turning to `Cc1nn(-c2ccc(Cl)cc2)c2[nH]c(CN3CCN(c4cccc(Cl)c4)CC3)cc(=O)c12`, the XC50 is 240 nM.

Compound `NC(=O)c1cccc(C(=O)Nc2cccc(-c3csc(-c4nc5ccccc5[nH]4)c3)c2)c1` had an XC50 of 133 nM.

With `Oc1ccccc1CNCC12CC3CC(CC(C3)C1)C2`, the XC50 worked out at 279 nM.

Compound `Cc1cc(N2CCCC2)nc(Nc2ccc(NC(=O)Nc3ccccc3)cc2)n1` showed an XC50 of 165 nM.

Consider `CC[C@H]1CN2CC[C@H]1C[C@H]2[C@H](O)c1cc(-c2cccc(F)c2)nc2ccc(OC)cc12`, for which the XC50 turned out to be 58.2 nM.

As for `COc1ccc2nccc([C@@H](O)CN3CCC(NC(=O)c4ccc(Cl)c([N+](=O)[O-])c4)CC3)c2c1`, the XC50 was 954 nM.

The compound `O=C1C(c2ccccc2)=C(Nc2ccc(OC(F)(F)F)cc2)c2ccccc21` gave an XC50 of 107 nM.

`Clc1ccc(CNc2ccnc(NCCc3coc4ccccc34)n2)c(Cl)c1`: the XC50 stood at 1170 nM.

`COc1ccc(Cn2ccc3c4c(N)nc(N)nc4ccc32)cc1` came in with an XC50 of 3.2 nM.

On to `COc1ccc(-c2ccc(NC(=O)c3ccc(C#N)cc3)cc2)cc1CN(C)CCO`, for which the XC50 is 629 nM.

Values taken from ChEMBL document CHEMBL1157539, “Thousands of chemical starting points for antimalarial lead identification” (Nature, 2010).
